Measurements taken from ChEMBL document CHEMBL1201862, “PubChem BioAssay data set” (2004).
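How tested: cells in 96-well plates exposed to compound for 48 hours at five concentrations. GI50 is the concentration that inhibits growth by half.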 Calls of active or inactive are those of the source. Cut-off read from the data, not from the text of the source: active = GI50 up to about 1.1 µM and inactive = higher.

Key:
Assay in all cases: DTP human tumour cell line panel, 48 h
EKVX = tested on: EKVX
Malme-3M = tested on: Malme-3M
HCT-15 = tested on: HCT-15
COLO 205 = tested on: COLO 205
UACC-62 = tested on: UACC-62
NCI-H522 = tested on: NCI-H522
SF-295 = tested on: SF-295
NCI-H460 = tested on: NCI-H460
K562 = tested on: K562
SN12C = tested on: SN12C
MOLT-4 = tested on: MOLT-4
SK-MEL-5 = tested on: SK-MEL-5
MCF7 = tested on: MCF7
ACHN = tested on: ACHN
LXFL 529 = tested on: LXFL 529
DU-145 = tested on: DU-145
U-251 = tested on: U-251
MDA-N = tested on: MDA-N
NCI/ADR-RES = tested on: NCI/ADR-RES
HOP-62 = tested on: HOP-62

Question: For `COc1cccc2c1C(CO)N1C(C#N)C3CC(C(=O)O)C(C1C2)N3C` (configuration not stated), which GI50 (EKVX) is on record?
Answer: The GI50 was 6.19 µM (inactive).

Question: And the GI50 (Malme-3M)?
Answer: The GI50 was 1.92 µM (inactive).

Question: And the GI50 (HCT-15)?
Answer: Its GI50 is 1.43 µM.

Question: And the GI50 (COLO 205)?
Answer: Its GI50 is 1.26 µM (inactive).

Question: And the GI50 (UACC-62)?
Answer: The GI50 was 1.16 µM (inactive).

Question: And the GI50 (NCI-H522)?
Answer: Its GI50 is 0.0615 µM (active).

Question: And the GI50 (SF-295)?
Answer: The GI50 was 4.7 µM (inactive).

Question: What about the GI50 (NCI-H460) of the same molecule?
Answer: Its GI50 is 5.19 µM (inactive).

Question: What about the GI50 (K562) of the same molecule?
Answer: Its GI50 is 1.63 µM (inactive).

Question: What about the GI50 (SN12C) of the same molecule?
Answer: Its GI50 is 1.64 µM (inactive).

Question: And the GI50 (MOLT-4)?
Answer: The GI50 was 1.48 µM (inactive).

Question: And the GI50 (SK-MEL-5)?
Answer: Its GI50 is 1.69 µM (inactive).

Question: What about the GI50 (MCF7) of the same molecule?
Answer: Its GI50 is 0.272 µM (active).

Question: And the GI50 (ACHN)?
Answer: The GI50 was 3.36 µM (inactive).

Question: What about the GI50 (LXFL 529) of the same molecule?
Answer: The GI50 was 2.56 µM (inactive).

Question: And the GI50 (DU-145)?
Answer: The GI50 was 0.481 µM (active).

Question: What about the GI50 (U-251) of the same molecule?
Answer: The GI50 was 1.52 µM (inactive).

Question: And the GI50 (MDA-N)?
Answer: The GI50 was 0.273 µM (active).

Question: What about the GI50 (NCI/ADR-RES) of the same molecule?
Answer: Its GI50 is 0.367 µM (active).

Question: For `COC(=O)C1(O)c2ccccc2N=C2C1CCN2C` (configuration not stated), which GI50 (EKVX) is on record?
Answer: Its GI50 is > 100 µM (inactive).

Question: And the GI50 (Malme-3M)?
Answer: The GI50 was > 100 µM (inactive).

Question: And the GI50 (HCT-15)?
Answer: Its GI50 is > 100 µM.

Question: What about the GI50 (COLO 205) of the same molecule?
Answer: The GI50 was > 100 µM (inactive).

Question: And the GI50 (UACC-62)?
Answer: The GI50 was > 100 µM (inactive).

Question: And the GI50 (NCI-H522)?
Answer: Its GI50 is > 100 µM (inactive).

Question: And the GI50 (SF-295)?
Answer: The GI50 was > 100 µM (inactive).

Question: And the GI50 (NCI-H460)?
Answer: Its GI50 is > 100 µM (inactive).

Question: What about the GI50 (K562) of the same molecule?
Answer: Its GI50 is > 100 µM (inactive).

Question: And the GI50 (SN12C)?
Answer: The GI50 was > 100 µM (inactive).

Question: And the GI50 (MOLT-4)?
Answer: Its GI50 is > 100 µM (inactive).

Question: And the GI50 (SK-MEL-5)?
Answer: The GI50 was > 100 µM (inactive).

Question: What about the GI50 (HOP-62) of the same molecule?
Answer: Its GI50 is > 100 µM (inactive).

Question: What about the GI50 (ACHN) of the same molecule?
Answer: Its GI50 is > 100 µM (inactive).

Question: And the GI50 (LXFL 529)?
Answer: Its GI50 is > 100 µM (inactive).

Question: And the GI50 (U-251)?
Answer: Its GI50 is > 100 µM (inactive).

Question: What does the source list for `CC(C)(C)C(=O)C(c1ccc(-c2cscn2)cc1)c1ccc(-c2cscn2)cc1`?
Answer: GI50 (EKVX): 33.3 µM (inactive); GI50 (Malme-3M): > 56.4 µM (inactive); GI50 (HCT-15): > 95.1 µM; GI50 (COLO 205): > 89.7 µM (inactive); GI50 (UACC-62): 21.7 µM (inactive); GI50 (NCI-H522): 22.8 µM (inactive); GI50 (SF-295): 18.1 µM (inactive); GI50 (NCI-H460): 40.5 µM (inactive); GI50 (K562): > 92.9 µM (inactive); GI50 (SN12C): 34.7 µM (inactive); GI50 (MOLT-4): > 100 µM (inactive); GI50 (SK-MEL-5): 38.1 µM (inactive); GI50 (HOP-62): 18.5 µM (inactive); GI50 (ACHN): 32 µM (inactive); GI50 (LXFL 529): 39.7 µM (inactive); GI50 (U-251): 20.7 µM (inactive)

Question: How did the GI50 (EKVX) turn out when `CC1(C)COC(C2(C)C(=O)C=C(c3ccccc3)c3ccccc32)=N1` (configuration not stated) was run?
Answer: Its GI50 is 45.4 µM (inactive).

Question: What about the GI50 (Malme-3M) of the same molecule?
Answer: Its GI50 is 11.5 µM (inactive).

Question: And the GI50 (HCT-15)?
Answer: The GI50 was 27.4 µM.

Question: And the GI50 (COLO 205)?
Answer: The GI50 was 42.6 µM (inactive).

Question: And the GI50 (UACC-62)?
Answer: Its GI50 is 54.3 µM (inactive).

Question: And the GI50 (NCI-H522)?
Answer: The GI50 was 35.5 µM (inactive).

Question: What about the GI50 (SF-295) of the same molecule?
Answer: Its GI50 is 37.9 µM (inactive).

Question: And the GI50 (NCI-H460)?
Answer: Its GI50 is 36.9 µM (inactive).

Question: And the GI50 (K562)?
Answer: Its GI50 is 33.3 µM (inactive).

Question: What about the GI50 (SN12C) of the same molecule?
Answer: The GI50 was 30.5 µM (inactive).

Question: What about the GI50 (MOLT-4) of the same molecule?
Answer: The GI50 was 25.8 µM (inactive).

Question: And the GI50 (SK-MEL-5)?
Answer: Its GI50 is > 100 µM (inactive).

Question: What about the GI50 (HOP-62) of the same molecule?
Answer: Its GI50 is 64.9 µM (inactive).

Question: And the GI50 (ACHN)?
Answer: The GI50 was 34.9 µM (inactive).

Question: What about the GI50 (LXFL 529) of the same molecule?
Answer: Its GI50 is 41.3 µM (inactive).

Question: And the GI50 (U-251)?
Answer: Its GI50 is 59.4 µM (inactive).
